Article PMC12951568, “Identifying Structural Factors Governing the Photodynamic Activity of Phthalocyanines” (Journal of Medicinal Chemistry, 2026)
Like-named read-outs stand apart in the source and are kept apart here.

Tests used:
[1] = target: bovine serum albumin (BSA) (Bos taurus, UniProt P02769); test: Interaction with bovine serum albumin (absorption and emission spectra in PBS); format: binding; details: 1 μM Pc in PBS, BSA 17.5, 35 and 100 μM
[2] = Absorption and fluorescence emission spectra in DMF; format: physicochemical; details: for ε, extinction coefficient / λA, absorption maximum in the Q-band / λF, fluorescence emission maximum: in DMF
Experimental: An absorption spectrum of 2.475 mL of solvent (water, DMF, or PBS) was taken (i.e., absorption spectrum of baseline); then, 25 μL of stock solution was added to reach the final concentration of 1 μM in the cuvette, and the absorption and emission spectra were taken. Baseline of the solvent was subtracted from the obtained absorption spectrum to get the final absorption spectrum of the sample.

[3] = Fluorescence lifetime in DMF; format: physicochemical
Excerpt: 1 Photophysical Data of Investigated Derivatives in DMF ^a | column: τF1/ns; τF2/ns

[4] = Fluorescence quantum yield, comparative method; format: physicochemical; details: in DMF; ZnPc as reference
Experimental: The fluorescence quantum yields (ΦF) were determined by a comparative method with ZnPc as the reference (ΦF = 0.32 in THF). The ΦF values were calculated using the following formula: ϕFS=ϕFR(F^S/F^R)(1−10^−A^R/1−10^−A^S)(η^S/η^R)^2 where F is the integrated area under the emission spectrum and A is the absorbance at the excitation wavelength. Superscripts R and S indicate the reference and sample, respectively. η stands for the refractive index of the solvent. Absorption in the Q-band was kept below 0.05 to eliminate the inner filter effect. Excitation wavelengths were the same as those used for emission spectra (see above). The emission wavelengths were set to their emission maxima to avoid exceeding the detector limit with stimated error ± 15%.

[5] = tested on: HeLa (human cervical carcinoma); details: ref number not given, cited from earlier work
[6] = Quantum yield of singlet oxygen production, comparative method with DPBF scavenger; format: physicochemical; details: in DMF, ZnPc as reference
Experimental: Eight μL of the 100 μM stock solution of the dye in DMF (or DMF + water or water; see above) was added. A xenon lamp (100 W, ozone free XE DC short arc lamp, New port) was used to irradiate the sample while stirring. The incident light was filtered through a water filter (6 cm) and cut off filter OG530 eliminating heat and light under 523 nm, respectively. […] The decrease of DPBF in solution with irradiation time was monitored at 415 nm. The values of ΦΔ of the dyes were calculated by the following equation: φΔS=φΔ[…] is the slope of the plot of the dependence of ln([…] 0 and A t being the absorbances of the DPBF at 415 nm before irradiation and after irradiation time t, respectively. I aT is the total amount of light absorbed by the dye sample. Superscripts R and S indicate the reference and sample, respectively. I aT is calculated as a sum of intensities of the absorbed light I a at wavelengths from 523 to 850 nm (step 0.5 nm). Light under 523 nm is completely filtered by an OG530 filter, and light above 850 nm is not absorbed by the studied dye sample. I a at a given wavelength is calculated using Beer-Lambert'[…]) where I 0 is transmittance of the filter at the given wavelength and A is the absorbance of the dye at this wavelength. All experiments were performed three times, and the data presented is the mean value of the three obtained results with estimated error ± 10%.

[7] = Log P, partition between n-octanol and PBS; format: physicochemical
Experimental: 400 μL portion of n-octanol and 400 μL of PBS buffer were mixed in a plastic Eppendorf vial. Then, 20 μL of the 100 μM stock solution of the sample (see above) was added to this mixture, vortexed for 5 min at rt, and then centrifuged for 10 min (10 000 rpm, rt). 50 μL of each of these layers was taken into 2.5 mL of DMF in a quartz cuvette, and their emission spectra (excitation wavelengths in Table ) were recorded. The log P value was then computed using the area under the curve of the emission spectra of n-octanol (F oct) and PBS buffer (F PBS) layers as follows: logP=log(Foct/FPBS) Triplicate measurements were performed, and the data reported are the mean of the obtained results.

[8] = tested on: MCF-7 (human breast adenocarcinoma); test: Photodynamic activity (phototoxicity, neutral red uptake) on MCF-7; format: cell-based; details: 12 h incubation, Xe-lamp 15 min, λ > 570 nm, 11.2 J/cm^2; mean ± SD; t.w. = this work
Experimental: (§1) Detailed in vitro studies involving subcellular localization and determination of the EC50 in three different cell lines (human cervical carcinoma–HeLa, human breast adenocarcinoma–MCF-7, and human skin melanoma–SK-MEL-28) were performed. A broadband light source (ozone-free 450 W Xe-lamp, Newport) equipped with the long-pass filter Schott OG570 was used (12.4 mW/cm^2, 15 min, 11.2 J/cm^2).
(§2) For the cytotoxicity experiments (phototoxicity), cells were seeded at 100 μL per well into 96-well plates (TPP, Switzerland) at a density of 7.5 × 10^3 (HeLa) or 1.0 × 10^4 (MCF-7 and SK-MEL-28) cells per well. Cells were left to grow for 24 h (until they reached confluency) in a controlled environment of a CO2 incubator (37 °C, 5% CO2 atmosphere, constant high humidity). Subsequently, studied compounds were added in a wide concentration range and incubated with the cells for 12 h. Cells were washed; fresh cell culture medium was added, and the cells were irradiated using a 450 W Xe lamp (Newport, USA). The lamp was equipped with a long pass filter (Newport OG570) and an 8 cm water filter (λ > 570 nm, 12.4 mW/cm^2, 15 min, 11.2 J/cm^2). Cellular viability was assessed after an additional 24 h by the neutral red (NR; Sigma, Merck, USA) uptake assay. At least three independent experiments, each in triplicate, were performed. The soluble NR was measured at λ = 540 nm using a Tecan Infinite 200 M plate reader (Tecan, Austria). The viability of each experimental group was expressed as the percentage of the untreated cells (100% viability) after subtraction of the signal from cells treated with a lethal dose of hydrogen peroxide (0% viability). […] EC50 values were calculated, and graphs were created by using GraphPad Prism 10.3.1 (Graph Pad software, USA).

[9] = tested on: SK-MEL-28 (human skin melanoma); test: Photodynamic activity (phototoxicity, neutral red uptake) on SK-MEL-28; format: cell-based; details: 12 h incubation, Xe-lamp 15 min, λ > 570 nm, 11.2 J/cm^2; mean ± SD; t.w. = this work
Experimental: as §1, §2

[10] = partition coefficient between 1-octanol and PBS

Sequence of bovine serum albumin (BSA) (P02769 25-607): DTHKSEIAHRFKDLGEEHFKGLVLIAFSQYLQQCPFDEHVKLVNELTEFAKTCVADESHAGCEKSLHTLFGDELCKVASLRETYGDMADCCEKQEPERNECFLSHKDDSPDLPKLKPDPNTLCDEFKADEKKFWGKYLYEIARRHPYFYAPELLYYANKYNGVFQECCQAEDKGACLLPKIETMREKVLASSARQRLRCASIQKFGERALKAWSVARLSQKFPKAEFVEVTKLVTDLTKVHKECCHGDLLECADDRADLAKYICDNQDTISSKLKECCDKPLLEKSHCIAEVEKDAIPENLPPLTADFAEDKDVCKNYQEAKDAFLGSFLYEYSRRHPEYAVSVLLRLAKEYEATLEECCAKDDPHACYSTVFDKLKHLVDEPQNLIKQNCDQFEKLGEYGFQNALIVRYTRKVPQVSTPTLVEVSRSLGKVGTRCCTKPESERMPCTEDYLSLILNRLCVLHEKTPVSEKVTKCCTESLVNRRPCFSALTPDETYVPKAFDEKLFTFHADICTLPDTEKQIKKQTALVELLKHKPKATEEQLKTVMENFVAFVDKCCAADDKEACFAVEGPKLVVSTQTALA

| τF1, fluorescence lifetime (relative amplitude in brackets) [3] | τF2, fluorescence lifetime (relative amplitude in brackets) [3] | blueshift of the Q-band vs corresponding Pc analogue ([2]; pyrazine analogs vs A4Zn and N6Zn, DMF) [nm] | Log P [7] | SMILES | Interaction with BSA: disaggregation/monomerization and changes in absorption and fluorescence emission spectra [1] | ε, extinction coefficient [2] | λA, absorption maximum in the Q-band [2] [nm] | λF, fluorescence emission maximum [2] [nm] | ΦF, fluorescence quantum yield [4] | EC50 ([5]; same irradiation conditions, previously published per Table 2, read-out: EC50 (HeLa)) [nM] | ΦΔ, quantum yield of singlet oxygen production [6] | quenching of excited states upon BSA addition (decrease in Q-band maximum and fluorescence intensity) [1] | EC50 ([5]; 12 h incubation, Xe-lamp 15 min, λ > 570 nm, 11.2 J/cm^2, mean ± SD, determined previously under the same conditions at the same workplace and published, read-out: EC50 (nM) HeLa) [nM] | Log P [7, 10] | EC50 [8] [nM] | EC50 [9] [nM] |
| --- | --- | --- | --- | --- | --- | --- | --- | --- | --- | --- | --- | --- | --- | --- | --- | --- |
|  |  |  |  | C[n+]1cccc(Oc2ccc3c(c2)C2=NC3=Nc3c4cc(Oc5ccc[n+](C)c5)ccc4c4[n]3[Zn][n]3c(c5ccc(Oc6ccc[n+](C)c6)cc5c3=NC3=NC(=N4)c4cc(Oc5ccc[n+](C)c5)ccc43)=N2)c1 [C5Zn] | slight decrease in the absorption band (without a shift in the spectrum) but was accompanied by a slight increase in the fluorescence intensity |  |  |  |  |  |  |  |  |  |  |  |
| 1.04 (3%) ns | 3.17 (97%) ns |  |  | Cc1cc(OCc2cn(CCOCCOCCO)nn2)c(Oc2cc3c(cc2Oc2c(OCc4cn(CCOCCOCCO)nn4)cc(C)cc2OCc2cn(CCOCCOCCO)nn2)C2=Nc4c5cc(Oc6c(OCc7cn(CCOCCOCCO)nn7)cc(C)cc6OCc6cn(CCOCCOCCO)nn6)c(Oc6c(OCc7cn(CCOCCOCCO)nn7)cc(C)cc6OCc6cn(CCOCCOCCO)nn6)cc5c5[n]4[Zn][n]4c(c6cc(Oc7c(OCc8cn(CCOCCOCCO)nn8)cc(C)cc7OCc7cn(CCOCCOCCO)nn7)c(Oc7c(OCc8cn(CCOCCOCCO)nn8)cc(C)cc7OCc7cn(CCOCCOCCO)nn7)cc6c4=NC4=NC(=N5)c5cc(Oc6c(OCc7cn(CCOCCOCCO)nn7)cc(C)cc6OCc6cn(CCOCCOCCO)nn6)c(Oc6c(OCc7cn(CCOCCOCCO)nn7)cc(C)cc6OCc6cn(CCOCCOCCO)nn6)cc54)=NC3=N2)c(OCc2cn(CCOCCOCCO)nn2)c1 [N6Zn] |  | 237 520 M^–1cm^–1 | 681 | 690 | 0.26 | 69700 | 0.46 |  |  |  |  |  |
|  |  |  |  | O=C([O-])c1cc(C(=O)[O-])cc(-c2nc3c(nc2-c2cc(C(=O)[O-])cc(C(=O)[O-])c2)C2=Nc4c5nc(-c6cc(C(=O)[O-])cc(C(=O)[O-])c6)c(-c6cc(C(=O)[O-])cc(C(=O)[O-])c6)nc5c5[n]4[Zn][n]4c(c6nc(-c7cc(C(=O)[O-])cc(C(=O)[O-])c7)c(-c7cc(C(=O)[O-])cc(C(=O)[O-])c7)nc6c4=NC4=NC(=N5)c5nc(-c6cc(C(=O)[O-])cc(C(=O)[O-])c6)c(-c6cc(C(=O)[O-])cc(C(=O)[O-])c6)nc54)=NC3=N2)c1.[Na+].[Na+].[Na+].[Na+].[Na+].[Na+].[Na+].[Na+].[Na+].[Na+].[Na+].[Na+].[Na+].[Na+].[Na+].[Na+] [A5Zn] | slight bathochromic shift in the Q-band accompanied by partial quenching of the excited states | 138 740 M^–1cm^–1 | 659 | 675 | 0.03 |  | 0.21 | significant | 5700 ± 1100 | –3.27 |  |  |
| 0.74 (5%) ns | 2.45 (95%) ns | 35 | –1.60 | Cc1cc(OCc2cn(CCOCCOCCO)nn2)c(Oc2nc3c(nc2Oc2c(OCc4cn(CCOCCOCCO)nn4)cc(C)cc2OCc2cn(CCOCCOCCO)nn2)C2=Nc4c5nc(Oc6c(OCc7cn(CCOCCOCCO)nn7)cc(C)cc6OCc6cn(CCOCCOCCO)nn6)c(Oc6c(OCc7cn(CCOCCOCCO)nn7)cc(C)cc6OCc6cn(CCOCCOCCO)nn6)nc5c5[n]4[Zn][n]4c(c6nc(Oc7c(OCc8cn(CCOCCOCCO)nn8)cc(C)cc7OCc7cn(CCOCCOCCO)nn7)c(Oc7c(OCc8cn(CCOCCOCCO)nn8)cc(C)cc7OCc7cn(CCOCCOCCO)nn7)nc6c4=NC4=NC(=N5)c5nc(Oc6c(OCc7cn(CCOCCOCCO)nn7)cc(C)cc6OCc6cn(CCOCCOCCO)nn6)c(Oc6c(OCc7cn(CCOCCOCCO)nn7)cc(C)cc6OCc6cn(CCOCCOCCO)nn6)nc54)=NC3=N2)c(OCc2cn(CCOCCOCCO)nn2)c1 [N7Zn] |  | 195 490 M^–1cm^–1 | 629 | 641 | 0.18 |  | 0.58 |  |  |  |  |  |
|  |  |  |  | O=S(=O)([O-])c1ccc(Oc2cccc3c2C2=Cc4c5cccc(Oc6ccc(S(=O)(=O)[O-])c7cccnc67)c5c5[n]4[Zn][n]4c(c6cccc(Oc7ccc(S(=O)(=O)[O-])c8cccnc78)c6c4=CC3=N2)=CC2=NC(=C5)c3cccc(Oc4ccc(S(=O)(=O)[O-])c5cccnc45)c32)c2ncccc12.[Na+].[Na+].[Na+].[Na+] [A8Zn] | complete | 197 610 M^–1cm^–1 | 696 | 708 | 0.26 |  | 0.69 |  |  | –3.64 | 2470 ± 810 | 1200 ± 280 |

| SMILES | τF1, fluorescence lifetime (relative amplitude in brackets) [3] | τF2, fluorescence lifetime (relative amplitude in brackets) [3] | blueshift of the Q-band vs corresponding Pc analogue ([2]; pyrazine analogs vs A4Zn and N6Zn, DMF) [nm] | Log P [7] | Interaction with BSA: disaggregation/monomerization and changes in absorption and fluorescence emission spectra [1] | ε, extinction coefficient [2] | λA, absorption maximum in the Q-band [2] [nm] | λF, fluorescence emission maximum [2] [nm] | ΦF, fluorescence quantum yield [4] | EC50 ([5]; same irradiation conditions, previously published per Table 2, read-out: EC50 (HeLa)) [nM] | ΦΔ, quantum yield of singlet oxygen production [6] | quenching of excited states upon BSA addition (decrease in Q-band maximum and fluorescence intensity) [1] | EC50 ([5]; 12 h incubation, Xe-lamp 15 min, λ > 570 nm, 11.2 J/cm^2, mean ± SD, determined previously under the same conditions at the same workplace and published, read-out: EC50 (nM) HeLa) [nM] | Log P [7, 10] | EC50 [8] [nM] | EC50 [9] [nM] |
| --- | --- | --- | --- | --- | --- | --- | --- | --- | --- | --- | --- | --- | --- | --- | --- | --- |
| O=S(=O)([O-])c1ccc(Oc2ccc3c(c2)C2=Cc4c5ccc(Oc6ccc(S(=O)(=O)[O-])c7cccnc67)cc5c5[n]4[Zn][n]4c(c6ccc(Oc7ccc(S(=O)(=O)[O-])c8cccnc78)cc6c4=CC3=N2)=CC2=NC(=C5)c3ccc(Oc4ccc(S(=O)(=O)[O-])c5cccnc45)cc32)c2ncccc12.[Na+].[Na+].[Na+].[Na+] [A6Zn] | 3.14 ns |  |  |  | partial | 122 420 M^–1cm^–1 | 681 | 692 | 0.28 |  | 0.58 |  |  | –2.89 |  |  |
